The values that follow come from patent US20100158980A1, “DRUG DELIVERY DEVICES FOR DELIVERY OF THERAPEUTIC AGENTS” (priority 2008, published 2010).

In brackets after ≈: the same amount, converted by molar mass. Where a name gives a salt, the structure may show the parent alone.

This series can be described thus: physchem. The source says: The active agent may be any active agent suitable to treat the desired condition. […] Examples include, but are not limited to, acetazolamide, dorzolamide HCl, timolol maleate, and ethacrynic acid sodium salt.

As for `O=C(O)CCCCCC[C@@H]1[C@@H](CC[C@@H](O)c2cc3ccccc3s2)[C@H](O)C[C@@H]1O` [AR-102 free acid, 7-((1R,2R,3R,5S)-2-((R)-3-(benzo[b]thiophen-2-yl)-3-hydroxypropyl)-3,5-dihydroxycyclopentyl)heptanoic acid], the solubility class entry is given as “moderate solubility”.
What is called solubility is the dissolved amount per volume that the medium holds. A higher solubility goes with much dissolved substance. Consider `CC(=O)Nc1nnc(S(N)(=O)=O)s1` [acetazolamide], for which the solubility (aqueous buffer) is above 1000 µg/mL.
On to `CCNC(=O)CCC/C=C\C[C@@H]1[C@@H](/C=C/[C@@H](O)CCc2ccccc2)[C@H](O)C[C@@H]1O` [bimatoprost], for which the solubility class entry is listed as “low solubility”.
On to `Brc1c(NC2=NCCN2)ccc2nccnc12` [brimonidine free base], for which the solubility worked out at 360 µg/mL (≈ 1230 µM).
As to `C[C@@H]1C[C@H]2[C@@H]3CCC4=CC(=O)C=C[C@]4(C)[C@@]3(F)[C@@H](O)C[C@]2(C)[C@@]1(O)C(=O)COP(=O)(O)O` [dexamethasone sodium phosphate], the solubility class result is recorded as “high solubility”.
For `C[C@@H]1C[C@H]2[C@@H]3CCC4=CC(=O)C=C[C@]4(C)[C@@]3(F)[C@@H](O)C[C@]2(C)[C@@]1(O)C(=O)CO` [dexamethasone], the solubility class result was “low solubility”. Further, the solubility (aqueous buffer) is below 300 µg/mL.
As for `CCN[C@H]1C[C@H](C)S(=O)(=O)c2sc(S(N)(=O)=O)cc21` [dorzolamide HCl], the solubility class result is “high solubility”. For the same compound, for the setting “aqueous buffer”, the solubility is above 1000 µg/mL.
Consider `C=C(CC)C(=O)c1ccc(OCC(=O)O)c(Cl)c1Cl` [ethacrynic acid sodium salt], for which the solubility class result was “high solubility”. For the same compound, the solubility (aqueous buffer) is above 1000 µg/mL.
Turning to `O=C(O)CCC/C=C\C[C@@H]1[C@@H](CC[C@@H](O)CCc2ccccc2)[C@H](O)C[C@@H]1O` [latanoprost free acid], the solubility is 800 µg/mL (≈ 2050 µM).
`CC[C@H](C)C(=O)O[C@H]1C[C@@H](C)C=C2C=C[C@H](C)[C@H](CC[C@@H]3C[C@@H](O)CC(=O)O3)[C@H]21` [lovastatin]: where the note is “aqueous buffer”, the solubility is below 300 µg/mL.
With `CC(C)(C)NC[C@H](O)COc1nsnc1N1CCOCC1` [timolol maleate], the solubility class entry is listed as “high solubility”. The same compound had a solubility (aqueous buffer) above 1000 µg/mL.
brimonidine tartrate showed a solubility (in water at pH 7.7) of 600 µg/mL.
